Experiments:
[1] = 101 kPa, Liquid; for mass density: Vibrating tube method; for speed of sound: sound velocity cell
[2] = xn = mol fraction of the nth substance listed; details: 101 kPa, Liquid, x2 = 0; for mass density: Vibrating tube method; for speed of sound: sound velocity cell

CO [methanol]
[1]
Details	mass density [kg/m3]	speed of sound [m/s]
288.15 K	796.694	1136.3
290.65 K	793.768	1127.7
293.15 K	791.418	1119.5
295.65 K	789.066	1111.3
298.15 K	786.71	1103
300.65 K	784.349	1094.7
303.15 K	781.983	1086.5
305.65 K	779.612	1078.3
308.15 K	777.234	1070.2
310.65 K	774.851	1062.1
313.15 K	772.458	1054
315.65 K	770.058	1045.9
318.15 K	767.647	1037.9
320.65 K	765.229	1029.9
323.15 K	762.809	1022

CO [methanol] + CC(=O)[O-].[NH3+]CCO
[2]
Details	mass density [kg/m3]	speed of sound [m/s]
288.15 K	796.694	1136.3
290.65 K	793.768	1127.7
293.15 K	791.418	1119.5
295.65 K	789.066	1111.3
298.15 K	786.71	1103
300.65 K	784.349	1094.7
303.15 K	781.983	1086.5
305.65 K	779.612	1078.3
308.15 K	777.234	1070.2
310.65 K	774.851	1062.1
313.15 K	772.458	1054
315.65 K	770.058	1045.9
318.15 K	767.647	1037.9
320.65 K	765.229	1029.9
323.15 K	762.809	1022

O [water]
[1]
Details	mass density [kg/m3]	speed of sound [m/s]
290.65 K	998.68	1474.7
295.65 K	997.65	1489.9
300.65 K	996.37	1503.4
305.65 K	994.86	1515.1
310.65 K	993.15	1525
313.15 K	–	1529.3
315.15 K	991.24	–
315.65 K	–	1533.2
318.15 K	–	1536.6
320.65 K	989.15	1539.6
323.15 K	988.04	1542.1

O [water] + CC(=O)[O-].[NH3+]CCO
[2]
Details	mass density [kg/m3]	speed of sound [m/s]
290.65 K	998.68	1474.7
295.65 K	997.65	1489.9
300.65 K	996.37	1503.4
305.65 K	994.86	1515.1
310.65 K	993.15	1525
313.15 K	–	1529.3
315.15 K	991.24	–
315.65 K	–	1533.2
318.15 K	–	1536.6
320.65 K	989.15	1539.6
323.15 K	988.04	1542.1

— the NIST ThermoML archive (doi:10.1016/j.jct.2011.01.014)
